Columns and labels:
Type in all cases: cell-based
CFTR ΔF508 mutant [1] = target: T1, CFTR ΔF508 mutant (Homo sapiens, UniProt P13569, DEL508-508); assay: YFP-halide influx assay for the CFTR-ΔF508 mutation (96 well, CFBE41o- cells); conditions: compounds of the invention, 96 well, forskolin 10.67 μM, read-out: EC50 measured by YFP-halide influx assay for the CFTR-ΔF508
T1 construct: expressed in transfected cells; host or cells: CFBE41o- (adenoviral transduction)
Method in brief: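 CFBE41o- cells were adenovirally transduced with CFTR ΔF508 and the halide-sensitive YFP H148Q/I152L. They were then corrected either at 27 °C for 24 h or with a CFTR modulator for 24 h at 37 °C. After iodide injection, YFP quenching over 7 s was expressed as 1−F/F0, and EC50 was derived from the concentration–response plot.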

CFTR ΔF508 mutant [2] = target: T1, CFTR ΔF508 mutant; assay: YFP-halide influx assay for the CFTR-ΔF508 mutation (384 well, CFBE41o- cells, FDSS/μCell); conditions: forskolin 10.67 μM, fluorescence after 36 seconds, read-out: EC50 measured by YFP-halide influx assay for the CFTR-ΔF508
Method in brief: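 CFBE41o- cells were adenovirally transduced with ΔF508 CFTR and the YFP H148Q/I152L reporter. Cells were then held 24 h at 27 °C or treated 24 h at 37 °C with a CFTR modulator. Iodide-induced quench was recorded for 2 min, and EC50 was derived from 1−F/F0 at 36 s against compound concentration.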

CFTR-G178R = target: T2, CFTR-G178R (Homo sapiens, UniProt P13569, G178R); assay: YFP-halide influx assay for the CFTR-G178R; conditions: read-out: EC50 measured by YFP-halide influx assay for the CFTR-G178R
T2 construct: expressed in transfected cells
Description: (§1) The YFP halide influx assay measures the functionality of the cystic fibrosis Transmembrane Conductance regulator (CFTR) channels. The assay is used to evaluate the capacity of compounds to increase the channel opening of existing mutant CFTR channels in the membrane. It makes use of the observation that the yellow fluorescent protein (YFP) variant YFP H148Q, I152L, F47L has its fluorescence substantially quenched by halide ions like Cl^− and I^−. (Galietta et al., 2001)
(§2) For this purpose, HEK293-cells are seeded in 96 well plates. During seeding, the cells are reverse-transfected with plasmid vectors that direct the expression of the CFTR G551D mutant and of the YFP reporter. Cells are incubated at 37° C., 5% CO2 for 24 hours so as to allow for sufficient expression of the CFTR protein.
(§3) The I^−-induced quenching of fluorescence is recorded immediately after injection of I^− for 7 seconds. The capacity of a compound to increase the channel opening is directly correlated with the decrease in fluorescence, and is expressed as (1−(fluorescence after 7 seconds (F)/fluorescence before injection (F0))) and an EC50 can be derived from a (1−F/F0) vs compound concentration plot.
(§4) Similar YHA assays were developed for other channel gating defective or channel conductance defective CFTR mutants to determine effect of compound on channel activity. Examples of mutants are G178R, G1349D, S549N, R117H, R334W. This assay is also used for additional class I CFTR mutants, including G542X, W1282X; class II mutants including N1303K, and for class III mutants including S1251N; or wild-type CFTR.

CFTR-G1349D = target: T3, CFTR-G1349D (Homo sapiens, UniProt P13569, G1349D); assay: YFP-halide influx assay for the CFTR-G1349D; conditions: CFTR-G1349D mutant; read-out: EC50 measured by YFP-halide influx assay for the CFTR-G1349D
T3 construct: expressed in transfected cells
Description: as §1, §2, §3, §4

CFTR-S549N = target: T4, CFTR-S549N (Homo sapiens, UniProt P13569, S549N); assay: YFP-halide influx assay for the CFTR-S549N; conditions: CFTR-S549N mutant; read-out: EC50 measured by YFP-halide influx assay for the CFTR-S549N
T4 construct: expressed in transfected cells
Description: as §1, §2, §3, §4

CFTR-R117H = target: T5, CFTR-R117H (Homo sapiens, UniProt P13569, R117H); assay: YFP-halide influx assay for the CFTR-R117H; conditions: CFTR-R117H mutant; read-out: EC50 measured by YFP-halide influx assay for the CFTR-R117H
T5 construct: expressed in transfected cells
Description: as §1, §2, §3, §4

CFTR G551D mutant = target: T6, CFTR G551D mutant (Homo sapiens, UniProt P13569, G551D); assay: YFP-halide influx assay for the CFTR-G551D mutation (HEK293 cells); conditions: HEK293 cells expressing CFTR G551D and YFP reporter; forskolin 10.67 μM; read-out: EC50 measured by YFP-halide influx assay for the CFTR-G551D
T6 construct: expressed in transfected cells; host or cells: HEK293 (reverse transfection with plasmids)
Method in brief: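 HEK293 cells reverse-transfected with CFTR G551D and halide-sensitive YFP, expressed 24 h at 37 °C. Iodide-induced fluorescence quench recorded for 7 s after I^− injection; response as 1−F/F0, EC50 from concentration plot.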

T1 sequence (P13569 with tags, fused parts or gaps DEL508-508): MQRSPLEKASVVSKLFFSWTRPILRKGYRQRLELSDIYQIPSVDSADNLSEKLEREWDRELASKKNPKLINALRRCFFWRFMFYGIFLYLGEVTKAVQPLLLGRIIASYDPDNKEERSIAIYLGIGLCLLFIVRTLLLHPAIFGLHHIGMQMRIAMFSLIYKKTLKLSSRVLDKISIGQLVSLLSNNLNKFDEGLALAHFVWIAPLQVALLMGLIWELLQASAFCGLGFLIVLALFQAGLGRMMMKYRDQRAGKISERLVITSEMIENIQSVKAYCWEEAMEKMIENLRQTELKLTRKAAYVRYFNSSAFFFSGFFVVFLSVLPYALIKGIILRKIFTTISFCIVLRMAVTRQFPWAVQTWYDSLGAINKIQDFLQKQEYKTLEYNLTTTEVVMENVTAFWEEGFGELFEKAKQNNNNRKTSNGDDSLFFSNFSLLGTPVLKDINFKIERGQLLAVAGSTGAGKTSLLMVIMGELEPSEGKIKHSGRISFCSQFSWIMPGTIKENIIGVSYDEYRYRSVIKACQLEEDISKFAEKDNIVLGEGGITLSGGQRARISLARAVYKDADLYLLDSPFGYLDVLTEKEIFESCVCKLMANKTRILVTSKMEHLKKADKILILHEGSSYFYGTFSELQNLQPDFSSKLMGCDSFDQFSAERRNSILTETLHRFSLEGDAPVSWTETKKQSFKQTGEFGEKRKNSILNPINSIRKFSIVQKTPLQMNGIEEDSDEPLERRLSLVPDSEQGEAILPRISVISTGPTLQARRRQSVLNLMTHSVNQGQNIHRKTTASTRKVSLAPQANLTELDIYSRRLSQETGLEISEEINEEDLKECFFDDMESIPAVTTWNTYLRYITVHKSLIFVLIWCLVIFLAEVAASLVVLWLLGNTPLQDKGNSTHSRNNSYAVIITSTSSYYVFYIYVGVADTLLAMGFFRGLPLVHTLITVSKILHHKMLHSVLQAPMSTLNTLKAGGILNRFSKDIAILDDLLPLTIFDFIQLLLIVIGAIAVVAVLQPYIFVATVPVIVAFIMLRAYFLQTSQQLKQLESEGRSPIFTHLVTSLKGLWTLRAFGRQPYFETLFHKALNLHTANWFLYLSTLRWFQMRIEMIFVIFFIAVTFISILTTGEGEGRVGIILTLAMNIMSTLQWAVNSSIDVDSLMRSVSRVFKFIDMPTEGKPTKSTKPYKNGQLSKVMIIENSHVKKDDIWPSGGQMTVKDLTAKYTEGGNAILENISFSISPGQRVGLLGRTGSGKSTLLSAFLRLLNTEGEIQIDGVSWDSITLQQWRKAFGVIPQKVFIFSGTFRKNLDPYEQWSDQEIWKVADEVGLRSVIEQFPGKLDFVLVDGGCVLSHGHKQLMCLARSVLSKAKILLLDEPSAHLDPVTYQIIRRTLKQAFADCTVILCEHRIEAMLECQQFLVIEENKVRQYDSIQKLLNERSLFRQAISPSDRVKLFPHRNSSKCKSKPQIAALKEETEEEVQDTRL
T4 sequence (P13569 whole entry S549N): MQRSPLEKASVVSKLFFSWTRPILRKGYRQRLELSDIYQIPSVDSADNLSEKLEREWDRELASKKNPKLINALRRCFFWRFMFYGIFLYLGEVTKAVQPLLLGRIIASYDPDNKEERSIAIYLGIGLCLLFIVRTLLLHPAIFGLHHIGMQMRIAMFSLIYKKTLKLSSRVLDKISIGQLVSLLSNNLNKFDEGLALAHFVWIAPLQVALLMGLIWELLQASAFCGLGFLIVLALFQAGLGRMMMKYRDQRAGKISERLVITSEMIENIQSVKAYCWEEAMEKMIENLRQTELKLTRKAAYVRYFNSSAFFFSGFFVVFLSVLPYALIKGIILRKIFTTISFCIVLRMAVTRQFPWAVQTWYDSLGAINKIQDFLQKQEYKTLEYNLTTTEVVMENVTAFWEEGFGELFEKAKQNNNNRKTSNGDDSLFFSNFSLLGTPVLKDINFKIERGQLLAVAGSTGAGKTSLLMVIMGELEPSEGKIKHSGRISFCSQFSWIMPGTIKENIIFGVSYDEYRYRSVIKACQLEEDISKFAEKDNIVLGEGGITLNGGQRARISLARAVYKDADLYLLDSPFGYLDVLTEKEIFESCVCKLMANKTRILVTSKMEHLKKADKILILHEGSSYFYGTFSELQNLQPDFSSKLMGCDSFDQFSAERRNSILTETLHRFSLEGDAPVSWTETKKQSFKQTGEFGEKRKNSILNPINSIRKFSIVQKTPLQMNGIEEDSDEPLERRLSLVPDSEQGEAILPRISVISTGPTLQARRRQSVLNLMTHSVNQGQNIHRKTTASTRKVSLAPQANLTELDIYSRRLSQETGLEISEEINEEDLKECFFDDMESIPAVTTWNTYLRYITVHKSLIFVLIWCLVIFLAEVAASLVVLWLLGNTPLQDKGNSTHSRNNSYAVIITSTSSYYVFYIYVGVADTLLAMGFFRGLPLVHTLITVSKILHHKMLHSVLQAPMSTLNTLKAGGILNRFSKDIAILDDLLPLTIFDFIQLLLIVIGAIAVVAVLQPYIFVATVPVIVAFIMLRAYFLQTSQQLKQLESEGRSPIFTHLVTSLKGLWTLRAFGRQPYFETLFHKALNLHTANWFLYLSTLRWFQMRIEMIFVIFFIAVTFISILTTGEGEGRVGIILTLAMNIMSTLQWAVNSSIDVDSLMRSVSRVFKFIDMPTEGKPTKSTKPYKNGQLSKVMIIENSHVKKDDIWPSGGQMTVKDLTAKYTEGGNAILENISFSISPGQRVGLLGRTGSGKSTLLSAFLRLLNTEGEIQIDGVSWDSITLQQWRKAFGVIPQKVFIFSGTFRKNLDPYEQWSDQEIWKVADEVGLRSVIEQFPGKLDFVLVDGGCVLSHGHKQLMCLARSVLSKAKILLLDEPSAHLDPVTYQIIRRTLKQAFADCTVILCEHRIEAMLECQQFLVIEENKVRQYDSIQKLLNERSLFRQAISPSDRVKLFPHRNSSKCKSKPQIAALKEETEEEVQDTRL
T6 sequence (P13569 whole entry G551D): as the sequence (P13569 whole entry S549N) above, with N549S, G551D counted along it
T5 sequence (P13569 whole entry R117H): as the sequence (P13569 whole entry S549N) above, with R117H, N549S counted along it
T3 sequence (P13569 whole entry G1349D): as the sequence (P13569 whole entry S549N) above, with N549S, G1349D counted along it
T2 sequence (P13569 whole entry G178R): as the sequence (P13569 whole entry S549N) above, with G178R, N549S counted along it

Row | Structure (SMILES) | EC50 (CFTR ΔF508 mutant [1]) [nM] | EC50 (CFTR ΔF508 mutant [2]) [nM] | EC50 (CFTR-G178R) [nM] | EC50 (CFTR-G1349D) [nM] | EC50 (CFTR-S549N) [nM] | EC50 (CFTR-R117H) [nM] | EC50 (CFTR G551D mutant) [nM]
1 | CC1(C)Cc2c(sc(NC(=O)C(O)C(C)(C)C)c2C(N)=O)C(C)(C)O1 (stereo not drawn) [Compound 38, 2-(2-hydroxy-3,3-dimethylbutanamido)-5,5,7,7-tetramethyl-5,7-dihydro-4H-thieno[2,3-c]pyran-3-carboxamide] | 5 | 5.99 | 96.8 | 517 | 690 | 64.3 | 
2 | CC(C)C(O)C(=O)Nc1sc2c(c1C(N)=O)CC(C)(C)OC2(C)C (stereo not drawn) [Compound 39, 2-(2-hydroxy-3-methylbutanamido)-5,5,7,7-tetramethyl-5,7-dihydro-4H-thieno[2,3-c]pyran-3-carboxamide] | 6 | 4.51 | 1360 | 1340 | 1100 | 145 | 
3 | CC1(C)Cc2c(sc(NC(=O)C3(CO)CCC3)c2C(N)=O)C(C)(C)O1 [Compound 40, 2-(1-(hydroxymethyl)cyclobutanecarboxamido)-5,5,7,7-tetramethyl-5,7-dihydro-4H-thieno[2,3-c]pyran-3-carboxamide] | 32 | 35.6 | > 3330 | 1910 | 1930 | 2900 | 
4 | CC1(C)Cc2c(sc(NC(=O)c3n[nH]cc3C3=CCOCC3)c2C(N)=O)C(C)(C)O1 [Compound 45, N-(3-carbamoyl-5,5,7,7-tetramethyl-4H-thieno[2,3-c]pyran-2-yl)-4-(3,6-dihydro-2H-pyran-4-yl)-1H-pyrazole-3-carboxamide] |  | 29.6 | 368 | 325 | 1520 | 1200 | 1140
5 | CC(C)CC(O)C(=O)Nc1sc2c(c1C(N)=O)CC(C)(C)OC2(C)C (stereo not drawn) [Compound 46, 2-[(2-hydroxy-4-methyl-pentanoyl)amino]-5,5,7,7-tetramethyl-4H-thieno[2,3-c]pyran-3-carboxamide] |  | 2.84 | 19 | 58.4 | 140 | 24.4 | 1430
6 | COCc1[nH]nc(C(=O)Nc2sc3c(c2C(N)=O)CC(C)(C)OC3(C)C)c1Cl [Compound 50, N-(3-carbamoyl-5,5,7,7-tetramethyl-4H-thieno[2,3-c]pyran-2-yl)-4-chloro-5-(methoxymethyl)-1H-pyrazole-3-carboxamide] |  | 10.6 | 47.4 | 70.5 | 105 | 76.3 | 288
7 | COCCOc1cc(C(=O)Nc2sc3c(c2C(N)=O)CC(C)(C)OC3(C)C)n[nH]1 [Compound 55, 5-(2-Methoxy-ethoxy)-1H-pyrazole-3-carboxylic acid (3-carbamoyl-5,5,7,7-tetramethyl-4,7-dihydro-5H-thieno[2,3-c]pyran-2-yl)-amide] |  | 24.5 | 58.3 | 74 | 108 | 38.9 | 600
8 | CCCc1c[nH]nc1C(=O)Nc1sc2c(c1C(N)=O)CC(C)(C)OC2(C)C [Compound 71, N-(3-carbamoyl-5,5,7,7-tetramethyl-4H-thieno[2,3-c]pyran-2-yl)-4-propyl-1H-pyrazole-3-carboxamide] |  | 14.4 | 89.3 | 97.7 | 196 | 116 | 1170
9 | CCOCCc1c[nH]nc1C(=O)Nc1sc2c(c1C(N)=O)CC(C)(C)OC2(C)C [Compound 72, N-(3-carbamoyl-5,5,7,7-tetramethyl-4H-thieno[2,3-c]pyran-2-yl)-4-(2-ethoxyethyl)-1H-pyrazole-3-carboxamide] |  | 17.9 | 31.4 | 64 | 122 | 147 | 368
10 | CC1(C)Cc2c(sc(NC(=O)[C@@H](O)C(C)(C)C)c2C(N)=O)C(C)(C)O1 [Compound 76, 2-[[(2S)-2-hydroxy-3,3-dimethyl-butanoyl]amino]-5,5,7,7-tetramethyl-4H-thieno[2,3-c]pyran-3-carboxamide] |  | 2.17 | 14.1 | 24.4 | 31.5 | 15.3 | 412
11 | CC1(C)Cc2c(sc(NC(=O)[C@H](O)C(C)(C)C)c2C(N)=O)C(C)(C)O1 [Compound 77, 2-[[(2R)-2-hydroxy-3,3-dimethyl-butanoyl]amino]-5,5,7,7-tetramethyl-4H-thieno[2,3-c]pyran-3-carboxamide] |  | 127 | 2210 | 1310 | 1450 | 1010 | 7780
12 | CC1(C)Cc2c(sc(NC(=O)c3n[nH]cc3C3=COCCO3)c2C(N)=O)C(C)(C)O1 [Compound 94, N-(3-carbamoyl-5,5,7,7-tetramethyl-4H-thieno[2,3-c]pyran-2-yl)-4-(2,3-dihydro-1,4-dioxin-5-yl)-1H-pyrazole-3-carboxamide] |  | 30.1 | 67.6 | 672 | 345 | 147 | 541
13 | CC1(C)Cc2c(sc(NC(=O)[C@@H](O)CC3CC3)c2C(N)=O)C(C)(C)O1 [Compound 98, 2-[[(2S)-3-cyclopropyl-2-hydroxy-propanoyl]amino]-5,5,7,7-tetramethyl-4H-thieno[2,3-c]pyran-3-carboxamide] |  | 2.62 | 41.5 | 54.7 | 73 | 26.7 | 5110
14 | CC(C)OCCOc1c[nH]nc1C(=O)Nc1sc2c(c1C(N)=O)CC(C)(C)OC2(C)C [Compound 101, N-(3-carbamoyl-5,5,7,7-tetramethyl-4H-thieno[2,3-c]pyran-2-yl)-4-(2-isopropoxyethoxy)-1H-pyrazole-3-carboxamide] |  | 26.8 | 347 | 888 | 947 | 1120 | 1360
15 | CC(C)(C)CC(O)C(=O)Nc1sc2c(c1C(N)=O)CC(C)(C)OC2(C)C (stereo not drawn) [Compound 106, 2-[(2-hydroxy-4,4-dimethyl-pentanoyl)amino]-5,5,7,7-tetramethyl-4H-thieno[2,3-c]pyran-3-carboxamide] |  | 0.54 | 26 | 200 | 21.8 | 11.7 | 981
16 | CC1(C)Cc2c(sc(NC(=O)c3ccn(CC(F)(F)F)n3)c2C(N)=O)C(C)(C)O1 [Compound 121, N-(3-carbamoyl-5,5,7,7-tetramethyl-4H-thieno[2,3-c]pyran-2-yl)-1-(2,2,2-trifluoroethyl)pyrazole-3-carboxamide] |  | 18.7 | 466 | 536 | 599 | 724 | 1000
17 | CC1(C)Cc2c(sc(NC(=O)c3ccnn3CC(F)(F)F)c2C(N)=O)C(C)(C)O1 [Compound 151, N-(3-carbamoyl-5,5,7,7-tetramethyl-4H-thieno[2,3-c]pyran-2-yl)-2-(2,2,2-trifluoroethyl)pyrazole-3-carboxamide] |  | 20.1 | 221 | 464 | 3330 | 780 | 971
